Source: ChEMBL document CHEMBL1221200, “Diarylquinolines target subunit c of mycobacterial ATP synthase” (Nat Chem Biol, 2007)
Converted amounts (≈) assume the structure as drawn.

Tested on: Mycobacterium tuberculosis
Test: Antimicrobial activity against Mycobacterium bovis BCG by alamar blue assay
Type: functional, variant bovis BCG

Row | SMILES | MIC90 (Mycobacterium tuberculosis, variant bovis BCG, read-out: MIC90) [µg/mL] | MIC90 [µg/mL]
1 | CO[C@H]1/C=C/O[C@@]2(C)Oc3c(C)c(O)c4c(O)c(c(/C=N/N5CCN(C)CC5)c(O)c4c3C2=O)NC(=O)/C(C)=C\C=C\[C@H](C)[C@H](O)[C@@H](C)[C@@H](O)[C@@H](C)[C@H](OC(C)=O)[C@@H]1C [RIFAMPIN] | 0.02 (≈ 0.0243 µM) | 
2 | COc1nc2ccc(Br)cc2cc1[C@@H](c1ccccc1)[C@@](O)(CCN(C)C)c1cccc2ccccc12 (single isomer, unassigned) [BEDAQUILINE] |  | 1.8 (≈ 3.24 µM)
3 | COc1nc2ccc(Br)cc2cc1[C@H](c1ccccc1)[C@@](O)(CCN(C)C)c1cccc2ccccc12 (racemic; 1c) |  | 7.9 (≈ 14.2 µM)
4 | COc1nc2ccc(Br)cc2cc1[C@H](c1ccccc1)[C@@](O)(CCN(C)C)c1cccc2ccccc12 (racemic; 1d) |  | 1.8 (≈ 3.24 µM)
5 | COc1nc2ccc(Br)cc2cc1[C@@H](c1ccccc1)[C@@](O)(CCN(C)C)c1cccc2ccccc12 [BEDAQUILINE] |  | 0.07 (≈ 0.126 µM)
